# Measured values published in patent US20230114207A1, “THE COMBINATION OF CYCLIN DEPENDENT KINASE 7 INHIBITOR AND IMMUNOTHERAPY FOR TREATMENT OF CANCER” (Dana-Farber Cancer Institute, Inc., priority 2019, published 2023).
# Columns and labels:
# [1] = test system: Tnf, Cxcl10 and Cxcl9 in RPP631; assay: RT-qPCR of Tnf, Cxcl10 and Cxcl9; assay type: cell-based, mouse; conditions: after 48 hr
# Procedure: (§1) Cell pellets were collected and then subjected to total RNA extraction using RNeasy Plus Mini Kit (QIAGEN, Cat #74136) according to the manufacturer's instructions, or using TRIzol:Chloroform phase-separation by centrifugation followed by RNA precipitation using isopropanol. The extracted RNA was reversely transcribed into cDNA using the High-Capacity RNA-to-cDNA™ Kit (Thermo Fisher Scientific, Cat #4387406) according to the manufacturer's instructions. The obtained cDNA samples were diluted and used for RT-qPCR. PowerUp™ SYBR™ Green Master Mix (Thermo Fisher Scientific, Cat #A25742) or TaqMan Gene Expression Master Mix (Life Technologies, Cat #4369514). Gene specific primers with sequences listed in Table 3 were used for PCR amplification and detection on the StepOnePlus™ Real-Time PCR System (Thermo Fisher Scientific). RT-qPCR data were normalized to Actb (mouse cells) or GUSB (human cells) and presented as fold changes of gene expression in the test sample compared to the control.
# RPP orthotopic model = assay: Treatment study in RPP orthotopic SCLC model; assay type: in vivo, mouse
# Procedure: (§2) All animal studies were reviewed and approved by the Institutional Animal Care and Use Committee (IACUC) at the New York University Langone Health (NYULH) and Dana-Farber Cancer Institute (DFCI). From 6 weeks of age, mice were induced with adenovirus-Cre recombinase (Ad-Cre) by intratracheal intubation to allow cre-lox-mediated recombination of floxed Rb1, p53 and p130 alleles. For syngeneic orthotopic models, ultrasound-guided transthoracic injection was performed using 200,000 RPP631, RP or RPP-MYC cells in 30 μL PBS directly into the lung of 6 to S-week-old C57BL/6 (Jackson Laboratory, Stock No: 000664). For OT-IT cell assay, OT-I mice were purchased from the Jackson Laboratory (Stock No: 003S31). Both males and females mice were used and all mice were maintained in accordance with the respective NYULH and DFCI on the care, welfare, and treatment of laboratory animals. […]
# (§3) Animals were anesthetized with isoflurane to perform MRI of the lung field using BioSpec USR70/30 horizontal bore system (Bruker) to scan 24 consecutive sections. Tumor volumes within the whole lung were quantified using 3-D slicer software to reconstruct MRI volumetric measurements as described previously. […]
# RPP GEMMs = assay: Treatment study in autochthonous RPP GEMMs; assay type: in vivo, mouse
# Procedure: as §2, §3
# [2] = test system: tumor-infiltrating immune cells, RPP orthotopic model; assay: Immune profiling flow cytometry of tumor-bearing lung; assay type: in vivo, mouse
# Procedure: Mice were humanely euthanized, and mouse lungs were perfused using sterile PBS through heart perfusion from the left ventricle after BAL fluid collection. The whole lung was cut and minced into small pieces followed by digestion in collagenase D (Sigma-Aldrich) and DNase I (Sigma-Aldrich) in Hank's Balanced Salt Solution (HBSS) at 37° C. for 30 minutes. After incubation, the digested tissue was subjected to a 70 μm cell strainer (Thermo Fisher Scientific) to obtain single-cell suspensions. Separated cells were treated with 1×red blood cell (RBC) lysis buffer (BioLegend). Live cells were determined by LIVE/DEAD fixable aqua dead cell stain kit (Molecular Probes). The cell pellets were resuspended in PBS with 2% FBS for FAGS analysis. Cells were stained with cell surface markers as indicated followed by fixation/permeabilization (eBioscience). Cells were imaged on BD LSRFortessa (BD Biosciences) and analyzed using FlowJo software (Tree Star).
# RPP631 and GLC16 cells = assay: Immunofluorescence of γH2AX foci and micronuclei; assay type: cell-based, mouse, human
# Procedure: Before fixation, cells in PBS were seeded for 30 min on 0.01% Poly-lysine coated coverslip. Cells were then fixed in 4% paraformaldehyde (Diluted the 32% paraformaldehyde in PBS, Electron Microscopy Sciences 15714) for 10 min at room temperature. Cells were washed three times for 5 min with 200 mM glycine containing PBS, followed by permeabilization with 0.3% Triton X-100 in PBS for 15 min. After blocking with 5% bovine serum albumin (BSA) in PBS for 1 hour, cells were incubated with primary antibody (γH2A.X, Cell signaling 9718, 1:200) diluted in a 5% BSA in PBS solution overnight at 4° C. After washing four times with PBS, cells were incubated with Alexa Fluor Plus 555 (Invitrogen A32732, 1: 500) secondary antibody for 1 hour and washed three times with PBS. Cell nuclei were counterstained with DAPI (Biolengend 422801, diluted to 600 nM in PBS) for 5 min. Cells were washed two more times in PBS before mounting with Fluorescence Mounting Medium (Dako, S3023). Images were acquired using Zeiss 880 Laser Scanning Confocal Microscope and were processed by FIJI (NIH). Micronucleus were identified manually by distinct DAPI staining outside the main nucleus.
# [3] = test system: INSM1, ASCL1, NFIB and MYC in DMS79 and GLC16; assay: RT-qPCR of super enhancer (SE)-associated genes; assay type: cell-based, human; conditions: 24 hr
# Procedure: as §1
# [4] = test system: SCLC cells (RPP631, DMS79, GLC16, NCI-H69, NCI-H82); assay: Cell viability assay (CCK-8); assay type: cell-based, mouse, human
# Procedure: Cells were seeded in 96-well plates (0.01-0.02×10^6 cells/well) in media and treated with YKL-5-124 at indicated concentrations and time points. Cell viability was measured using the MTS-based CCK-8 assay (Dojindo, Cat #CK04). Absorption at 450 nm was measured 3 hr after addition of CCK-8 reagent to cells.
compound,measurement,setting,value
C=CC(=O)Nc1ccc(C(=O)Nc2n[nH]c3c2CN(C(=O)N[C@H](CN(C)C)c2ccccc2)C3(C)C)cc1 [YKL-5-124],"tumor cell expression of Tnf, Cxcl10 and Cxcl9",[1],significantly stimulated
same,added median survival benefit,"RPP orthotopic model; RPP model, vs control",approximately 30 days
same,tumor response / tumor growth (MRI tumor volume),"RPP orthotopic model; RPP orthotopic model, 2- to 3-week",significant tumor response
same,mice with more than 50% increase of tumor burden,RPP GEMMs; 3-week time point,none
same,median overall survival,RPP GEMMs; RPP GEMMs,56 days
same,CD44^highCD62L^+ effector CD4^+ T cells (CD44^highCD62L^low for the combination),[2]; 7-day treatment,substantial increase
same,GzmB^+ CD8^+ T cells percentage,[2]; 7-day treatment,considerable but equivalent increase
same,ICOS^+ CD4^+ T cells,[2]; 7-day treatment,significantly higher frequencies
same,frequencies of total CD4^+ T cell infiltrates,[2]; 7-day treatment,no significant change
same,frequencies of total CD8^+ T cell infiltrates,[2]; 7-day treatment,no significant change
same,tumor-infiltrating CD4^+ T cells expressing Ki67,[2]; 7-day treatment,modest increase
same,percentages of tumor resident DCs (MHCII^+ CD11c^+ CD103^+),[2]; compared to control mice,significant increase
same,percentages of cells containing micronuclei,RPP631 and GLC16 cells; RPP631 and GLC16,considerably increased
same,γH2AX foci,RPP631 and GLC16 cells; after 48 hr,significant increase
same,"expression of super enhancer (SE)-associated genes including INSM1, ASCL1, NFIB and MYC",[3],no effect
same,growth rate (cell viability) compared to control cells,"[4]; all tested concentrations, up to 7 days",significant reduction
same,kind of growth effect,[4]; up to day 7,cytostatic effect with a tendency of cytotoxic effects at longer time points
